In ChEMBL document CHEMBL1177732, “Triterpene saponins from Clematis chinensis and their potential anti-inflammatory activity” (J Nat Prod, 2010):

What was measured:
[1] = molecular target: Prostaglandin G/H synthase 1 (Homo sapiens, UniProt P23219); assay: Inhibition of COX1 by microplate reader
[2] = molecular target: T1, Prostaglandin G/H synthase 2 (Homo sapiens, UniProt P35354); assay: Inhibition of COX2 by microplate reader
T1 sequence (P35354 whole entry): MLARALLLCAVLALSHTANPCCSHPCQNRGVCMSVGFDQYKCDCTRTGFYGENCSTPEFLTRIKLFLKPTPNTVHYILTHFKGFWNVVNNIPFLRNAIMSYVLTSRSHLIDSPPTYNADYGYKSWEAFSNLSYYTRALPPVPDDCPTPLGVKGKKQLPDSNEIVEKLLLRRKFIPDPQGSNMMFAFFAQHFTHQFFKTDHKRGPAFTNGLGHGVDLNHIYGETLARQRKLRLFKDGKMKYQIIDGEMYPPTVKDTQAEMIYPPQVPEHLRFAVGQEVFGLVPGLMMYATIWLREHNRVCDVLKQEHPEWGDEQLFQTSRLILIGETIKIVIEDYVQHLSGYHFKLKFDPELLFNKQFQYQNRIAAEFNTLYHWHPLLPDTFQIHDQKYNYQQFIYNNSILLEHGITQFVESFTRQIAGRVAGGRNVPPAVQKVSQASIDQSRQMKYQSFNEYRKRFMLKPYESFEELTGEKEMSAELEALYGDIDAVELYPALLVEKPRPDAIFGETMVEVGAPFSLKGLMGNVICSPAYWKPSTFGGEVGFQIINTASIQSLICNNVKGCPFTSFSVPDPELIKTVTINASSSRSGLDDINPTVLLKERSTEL

Chain of Prostaglandin G/H synthase 1 (P23219 whole entry): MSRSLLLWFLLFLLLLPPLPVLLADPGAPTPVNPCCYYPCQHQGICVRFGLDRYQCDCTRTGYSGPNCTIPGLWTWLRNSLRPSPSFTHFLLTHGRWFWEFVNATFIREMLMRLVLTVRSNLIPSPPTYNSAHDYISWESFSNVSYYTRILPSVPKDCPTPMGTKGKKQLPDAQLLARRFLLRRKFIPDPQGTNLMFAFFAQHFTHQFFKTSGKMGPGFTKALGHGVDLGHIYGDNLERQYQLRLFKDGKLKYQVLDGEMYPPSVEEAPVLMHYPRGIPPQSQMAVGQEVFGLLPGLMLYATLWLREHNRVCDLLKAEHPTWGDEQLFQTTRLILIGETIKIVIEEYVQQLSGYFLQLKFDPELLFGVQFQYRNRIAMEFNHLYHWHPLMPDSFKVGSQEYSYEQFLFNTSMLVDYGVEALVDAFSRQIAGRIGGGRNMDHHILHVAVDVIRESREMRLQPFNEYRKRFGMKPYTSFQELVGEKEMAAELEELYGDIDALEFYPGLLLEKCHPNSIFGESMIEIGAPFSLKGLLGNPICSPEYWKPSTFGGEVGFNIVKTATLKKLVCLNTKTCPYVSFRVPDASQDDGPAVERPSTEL

SMILES	IC50 [1] [µM]	IC50 [2] [µM]
COc1ccc(/C=C/C(=O)O[C@H]2[C@H](O[C@H]3[C@H](O)[C@@H](O)[C@H](O[C@@H]4CO[C@@H](O[C@@H]5[C@@H](O)[C@H](C)O[C@@H](O[C@H]6[C@H](O[C@H]7CC[C@]8(C)[C@H]9CC=C%10[C@@H]%11CC(C)(C)CC[C@]%11(C(=O)O[C@@H]%11O[C@H](CO[C@@H]%12O[C@H](CO)[C@@H](O[C@@H]%13O[C@@H](C)[C@H](O)[C@@H](O)[C@H]%13O)[C@H](O)[C@H]%12O)[C@@H](O)[C@H](O)[C@H]%11O)CC[C@@]%10(C)[C@]9(C)CC[C@H]8C7(C)C)OC[C@H](O)[C@@H]6O)[C@@H]5O)[C@H](O)[C@@H]4O)O[C@@H]3CO)O[C@H](CO)[C@@H](O)[C@@H]2O)cc1O [CLEMATERNOSIDE C]	7.6	8.8
COc1ccc(/C=C/C(=O)O[C@H]2[C@H](O[C@H]3[C@H](O)[C@@H](O)[C@H](O[C@@H]4CO[C@@H](O[C@@H]5[C@@H](O)[C@H](C)O[C@@H](O[C@H]6[C@H](O[C@H]7CC[C@@]8(C)[C@@H](CC[C@]9(C)[C@@H]8CC=C8[C@@H]%10CC(C)(C)CC[C@]%10(C(=O)O[C@@H]%10O[C@H](CO[C@@H]%11O[C@H](CO)[C@@H](O[C@@H]%12O[C@@H](C)[C@H](O)[C@@H](O)[C@H]%12O)[C@H](O)[C@H]%11O)[C@@H](O)[C@H](O)[C@H]%10O)CC[C@]89C)[C@]7(C)CO)OC[C@@H](O)[C@@H]6O)[C@@H]5O)[C@H](O)[C@@H]4O)O[C@@H]3CO)O[C@H](CO)[C@@H](O)[C@@H]2O[C@@H]2O[C@H](CO[C@@H]3O[C@@H](C)[C@H](O)[C@@H](O)[C@H]3O[C@@H]3O[C@H](CO)[C@@H](O)[C@H](O)[C@H]3O)[C@@H](O)[C@H](O)[C@H]2O)cc1O [CLEMATOCHINENOSIDE A]	7.8	6.7
C[C@@H]1O[C@@H](O[C@H]2[C@H](O)[C@@H](O)[C@H](OC[C@H]3O[C@@H](OC(=O)[C@]45CCC(C)(C)C[C@H]4C4=CC[C@@H]6[C@@]7(C)CC[C@H](O[C@@H]8OC[C@H](O)[C@H](O)[C@H]8O[C@@H]8O[C@@H](C)[C@H](O)[C@@H](O[C@@H]9OC[C@@H](O[C@@H]%10O[C@H](CO)[C@@H](O)[C@H](O)[C@H]%10O)[C@@H](O)[C@H]9O)[C@H]8O)[C@@](C)(CO)[C@@H]7CC[C@@]6(C)[C@]4(C)CC5)[C@H](O)[C@@H](O)[C@@H]3O)O[C@@H]2CO)[C@H](O)[C@H](O)[C@H]1O [CLEMATICHINENOSIDE B]	> 50	> 50
C[C@@H]1O[C@@H](O[C@H]2[C@H](O)[C@@H](O)[C@H](OC[C@H]3O[C@@H](OC(=O)[C@]45CCC(C)(C)C[C@H]4C4=CC[C@@H]6[C@@]7(C)CC[C@H](O)[C@@](C)(CO)[C@@H]7CC[C@@]6(C)[C@]4(C)CC5)[C@H](O)[C@@H](O)[C@@H]3O)O[C@@H]2CO)[C@H](O)[C@H](O)[C@H]1O [KIZUTA CIRENSENOSIDE O SAPONIN K3]	> 50	> 50
COc1ccc(/C=C/C(=O)O[C@H]2[C@H](O[C@H]3[C@H](O)[C@@H](O)[C@H](O[C@@H]4CO[C@@H](O[C@@H]5[C@@H](O)[C@H](C)O[C@@H](O[C@H]6[C@H](O[C@H]7CC[C@]8(C)[C@H]9CC=C%10[C@@H]%11CC(C)(C)CC[C@]%11(C(=O)O[C@@H]%11O[C@H](CO[C@@H]%12O[C@H](CO)[C@@H](O[C@@H]%13O[C@@H](C)[C@H](O)[C@@H](O)[C@H]%13O)[C@H](O)[C@H]%12O)[C@@H](O)[C@H](O)[C@H]%11O)CC[C@@]%10(C)[C@]9(C)CC[C@H]8C7(C)C)OC[C@H](O)[C@@H]6O)[C@@H]5O)[C@H](O)[C@@H]4O)O[C@@H]3CO)O[C@H](CO)[C@@H](O)[C@@H]2O[C@@H]2O[C@H](CO[C@@H]3O[C@@H](C)[C@H](O)[C@@H](O)[C@H]3O)[C@@H](O)[C@H](O)[C@H]2O)cc1O [CLEMATERNOSIDE E]	8.3	8.5
